row,SMILES,melting point [°C]
1,CC(C)(C)c1cccc(S(=O)(=O)Nc2ccc(C(F)(F)F)nc2I)c1,125
2,CCOC(=O)Nc1nc2c(c3c(CCNS(C)(=O)=O)n(C)nc13)CCCC2,214 to 215
3,O=C(CCCc1c[nH]c2ccccc12)NCc1ccccc1,132 to 133
4,O=C1c2ccccc2C(=O)N1CCCN1CCC(C(c2ccccc2)c2ccccc2)CC1,104 to 106
5,CC(CS(=O)(=O)c1ccc(-c2ccc(C(F)(F)F)cc2)cc1)N(O)C=O (configuration not stated),175
6,O=C(NC12CC3CC(CC(C3)C1)C2)c1cc(O)c(O)c([N+](=O)[O-])c1,207 to 208
7,O=C(O)c1ccc(OCC2CC(=O)N(c3ccc(OC4CCCC4O)cc3)C2)cc1 (configuration not stated),176 to 178
8,O=C1C(Cl)=CC(=NS(=O)(=O)c2cccs2)c2ccccc21,167 to 169
9,CN(Cc1ccc(CCn2cnc3cc(-c4ccc(Cl)cc4)sc3c2=O)cc1)S(C)(=O)=O,230 to 232
10,COC(=S)C(=Cc1ccccc1)N1CC(N2C(=O)c3ccccc3C2=O)C1=O (configuration not stated),170 to 171
11,COc1ccc(COc2nn(Cc3ccccc3)cc2CO)cc1OCc1nc(-c2ccco2)oc1C,108 to 109
12,COc1ccc(C2=NN(C3CCN(S(=O)(=O)Cc4ccccc4)CC3)C(=O)CC2)cc1OC,114
13,Cc1c(-c2ccc(Cl)cc2Cl)nc(C#N)n1S(=O)(=O)N(C)C,92 to 95
14,Cc1c(-c2ccc(Cl)cc2Cl)nn(C)c1S(C)(=O)=O,110 to 112
15,COc1ccc2[nH]c3c(c2c1)C[C@@]1(C)C(=O)N(CCCN(C)C)C(=O)N1[C@@H]3c1cccc(O)c1 (racemic),228 to 231
16,Cc1nc(CO)n(C)c1[N+](=O)[O-],113 to 114
17,O=C(O)C=CSc1c[nH]c2ccccc12,172 to 173
18,CC1=Nc2ccc(S(N)(=O)=O)cc2S(=O)(=O)N1,295 to 297
19,O=C(O)CC1=Cc2ccccc2C1,114 to 115
20,Cc1nc2cc3c(cc2[nH]1)NC(=O)C3(C)C,> 300
21,CC(C#Cc1ccc(Oc2ccc(Cc3ccc(F)cc3)cc2)o1)N(O)C(N)=O (configuration not stated),145 to 147
22,CCOC(=O)C1CCN(c2nc(COc3ccc(CCl)cc3OC)c(C)s2)CC1,98 to 99
23,O=[N+]([O-])c1ccc(Br)c(SC(F)(F)F)c1,118

row,SMILES,melting point [°C]
1,CCOC(=O)/C=C(C)/C=C/C=C(C)/C=C/c1c(C)coc1C,98 to 101
2,CCN1CCN(c2ccnc3c(NC(=O)c4c(Cl)cccc4Cl)cccc23)C1=O,249 to 253
3,NC(N)=Nc1nc(-c2cccc(-c3n[nH]c(N)n3)n2)cs1,> 300
4,CNC(=O)Cn1c(-c2ccc(C)cc2)nc2ccc(Cl)nc21,> 250
5,CSc1nnc2c(=O)c3ccc(C)cc3ccn12,178 to 179
6,CCCCNC(=O)C(C)(C)n1cc(C)c(-c2ccccc2)n1,53 to 57
7,O=C(Nc1cccnc1)N1CCN(c2cncc(-c3ccc(F)cc3F)n2)CC1,155 to 156
8,CCCc1c(OCCOCCOc2c(C(C)=O)ccc(OCC(=O)O)c2CCC)ccc(C(C)=O)c1O,96 to 99
9,COc1ccc(S(=O)(=O)N2C(=O)C(NC(C)=O)(c3ccccc3)c3cc(Cl)ccc32)c(OC)c1 (configuration not stated),253
10,CSc1ccc(NC(C#N)c2ccc(C)cc2)cc1 (configuration not stated),186 to 187
11,CCN1c2ncc(CCc3ccccc3)cc2C(=O)N(C)c2c1ncc(C)c2C,187 to 188
12,COCC(c1ccccc1)N(C)Cc1c(-c2ccc(NC(=O)NOC)cc2)sc2c1c(=O)n(-c1ccccc1)c(=O)n2Cc1c(F)cccc1F (configuration not stated),169 to 172
13,CCc1nc2c(cnn2CC)c(NC2CCOCC2)c1CNC(=O)c1cccc(C(=O)NCc2ccc(F)c(-c3cccc(CN4CCN(CC)CC4)c3)c2)c1,155 to 158
14,CCc1ncnc(NC2CCC3(CC2)OCC(CO)O3)c1Cl (configuration not stated),97 to 98
15,COc1cc2cc(-c3ccc(OCC(O)CNC(C)C)cc3)n(C)c(=O)c2cc1OC (configuration not stated),206 to 207
16,CCOC(=O)c1ccc(C#CC(O)c2cc(C(C)(C)C)cc(C(C)(C)C)c2O)cc1 (configuration not stated),142 to 144
17,COC(=O)CN(c1ccc(Cl)cc1C(=O)c1ccccc1F)S(=O)(=O)c1ccc(N)cc1,168 to 170
18,CCCCCCCCCCCCCSc1nnc(NC(=O)Nc2c(C(C)C)cccc2C(C)C)[nH]1,131 to 135
19,Cc1ccc(NC(=O)c2cccc(C(F)(F)F)c2)cc1-c1ccc2ncsc2c1,94 to 96
20,N#CCN1C(=O)N(c2ccc(C#N)c(C(F)(F)F)c2)C(=O)C1(CO)CO,157 to 158
21,O=C(O)c1c(-c2cnccn2)ssc1=S,225
22,CCc1nn(C2CCCC2)c2cc(C3=NOC(C)(c4noc(-c5cc(OC)cc(OC)c5)n4)C3)ccc12 (configuration not stated),154 to 155
23,CNC(=S)C1(c2ccc(C)cn2)CCCS1 (configuration not stated),134

row,SMILES,melting point [°C]
1,O=C(NC(=S)c1c(Cl)cccc1Cl)Nc1ccc(Cl)c(Cl)c1,168
2,C#CCOc1cc(OCC=C)ccc1-c1nc2cnncc2[nH]1,265
3,COc1ccc(C(=O)Nc2cc(NC(=O)c3cccc(OCC(=O)O)c3)ccc2C)cc1OC,206 to 207
4,CC(C)(C)c1cccc(S(=O)(=O)n2c(Cc3ccc(C(=O)O)cc3)cc3c(Cl)c(Cl)ccc32)c1,216
5,O=C(NCCCn1ccnc1)c1cccc(Cl)c1,125 to 127
6,COc1nc2cc(Cl)c(Cl)c(-n3cnnc3-c3cccnc3)c2nc1OC,206 to 207
7,CC(C)c1ccc(-c2cccc(-c3cccc(C(=O)O)c3)n2)cc1,215 to 216
8,CN1CCN(c2c(F)c(NCc3ccccc3)c3c(c2F)n2c(=O)n(OCc4ccccc4)c(=O)cc2n3C2CC2)CC1,214
9,COc1cc(OC)c([N+](=O)[O-])c(OC)c1NC(=O)OCCCl,133
10,CC(C)(C)OC(=O)NCc1cccc(Nc2ncnc3[nH]cc(C(=O)c4ccccc4)c23)c1,210 to 212
11,COc1c(OC)c(OC(C)=O)c2cc(OCCc3ccccc3)ccc2c1OC(C)=O,70 to 71
12,COc1cccc2c1Cc1ccccc1C2(CC(=O)O)CC(=O)O,150 to 153
13,O=C(COc1cc(-c2ccccc2)nc2ccc(Cl)cc12)N1CCOCC1,182
14,Cn1nnnc1C=C(c1ccccc1)c1ccccc1,147 to 148
15,N#Cc1ccccc1CNC(=O)C1Cc2ccccc2N1S(=O)(=O)c1ccc(-c2cccc(C(F)(F)F)c2)cc1 (configuration not stated),70
16,CCCC1Sc2ccc(F)cc2C=C1c1ccc2c(c1)NC(=O)CO2 (configuration not stated),161 to 162
17,Cc1ccc(-c2ccccc2NC(=N)N(C)C)cc1,147 to 148
18,CN1C2CCC1C1CN(C(=O)N3c4ccccc4C(=O)Nc4cccnc43)CC12 (configuration not stated),218 to 220
19,Cc1cn(COCCOC(=O)c2ccccc2)c(=O)[nH]c1=O,94 to 99
20,COc1nc(N)nc(C(C)C)n1,116 to 118
21,COc1cccc2c1N(S(=O)(=O)c1ccc(-c3ccc(F)cc3F)cc1)C(C(=O)NCc1ccc(C(=O)O)cc1)C2 (configuration not stated),218

# — a melting point compilation (Tetko et al.; mined from patent text by program, amines drawn as free bases though some values may be those of a salt)
